{
  "source": "patent US7087227B2",
  "about": "“Cartilage composites and methods of use” (Barnes-Jewish Hospital, priority 1997, dated 2006)",
  "type_in_all_cases": "cell-based, human",
  "key": {"[1]": {"test_system": "matrix metalloproteinases (MMPs)", "test": "Zymogram and Western analysis of chondrocyte-derived metalloproteinases in spent media", "conditions": "substrate gels", "method": "FIG. 10, in two parts, FIGS. 10A and 10B, represent SDS-substrate gel (zymogram) analysis of cytokine-mediated production of matrix metalloproteinases (MMPs) in fetal articular chondrocytes (neocartilage disks). Negative staining indicates the molecular weight (MW) in kDa of the active proteases. • Spent media were collected 72 h post stimulation with the indicated cytokine (5 ng/ml) and concentrated 16-fold by dialysis/lyophilization. • Unreduced samples were separated on 10% SDS substrate gels containing either gelatin (FIG. 10A) or casein (FIG. 10B) 0.1%. • MMPs were renatured following SDS removal by extensive washing in 2.5% Triton X-100 and lytic bands visualized via negative staining with Coomassie blue, following incubation in a calcium and zinc containing buffer for 4 hr at 37° C. • Latent enzyme activity is shown in lanes 1–4, while the corresponding active enzymes were prepared by preincubation with 1 mM 4-aminophenyl mercuric acetate (APMA lanes 5–8).\nConditioned media were thawed and identification of chondrocyte-derived metalloproteinases assessed by zymogen substrate gel electrophoresis, as well as Western analysis following SDS-PAGE. Further studies examined the effect of activating agents on synthesis of S-GAG and collagen via radiolabeled incorporation."}, "neocartilage [2]": {"test_system": "neocartilage", "test": "Cytokine-induced resorption of neocartilage (matrix content, gross and histological appearance)", "method": "It is seen that chronic IL-1 stimulation alters cartilage staining for proteoglycan and collagen. • Day 60 neocartilages were treated with 1 ng/ml rhIL-1β for 30 days. Fresh media and cytokine were added every 48 hours. • Neocartilages were harvested (day 90) and stained with safranin-O and pentachrome as before. […] Magnification×100.\nNeocartilage cultures were established in 24 or 48 well plastic dishes (Corning) as described above (Example 1) and grown to day 30. The hyaline cartilage matrix was then stimulated to undergo autolytic degradation following 30 day activation with increasing concentrations of a variety of cytokine and/or inflammatory agents, including IL-1, Il-6, IL-17, TNF-α, LPS, and phorbol ester. Culture media were collected every 48 hours and subsequently changed by the addition of fresh media±inflammatory stimuli.\nCultures were terminated and the biochemical composition of the neocartilage matrix that remained was analyzed as described previously. Parallel samples were processed for light and transmission electron microscopy for histological evaluation of extracellular matrix components."}, "neocartilage [3]": {"test_system": "neocartilage", "test": "Cytokine-induced resorption of neocartilage (matrix content, gross and histological appearance)", "conditions": "day 28 tissue stimulated for additional 36 days"}, "Fetal chondrocytes": {"test_system": "Fetal chondrocytes", "test": "Effect of heparin on neocartilage formation", "conditions": "day 10–28", "method": "Day 10 neocartilage was treated with increasing amounts of heparin for 18 days. Fresh media, containing heparin and ascorbate were added every 72–96 hrs. Media were collected and frozen for future analysis. Cultures were harvested on day 28 and the S-GAG content (FIG. 18A) and OH-proline content (FIG. 18B) of the resultant neocartilage assayed as described hereinbelow.\nFetal chondrocytes were grown as described above and subdivided into three groups on day 10 to investigate the effect of heparin on neocartilage formation. In low doses, heparin is known to increase the activity of certain growth factors, for example the fibroblast growth factor (FGF) family of related proteins, by acting as a co-factor, whereas greater amounts of heparin will strip away certain growth factors from the extracellular matrix and thereby impede tissue repair.\nSterile heparin was added to the media at a final concentration of […] for the duration of the culture period (i.e. from day 10–28). Media were exchanged every 3–4 days and recovered for electrophoretic analysis of secreted proteins. Cell layers were removed and the S-GAG (FIG. 18A), hydroxy proline (FIG. 18B), and DNA content quantitated as before (FIG. 18)."}, "[4]": {"conditions": "cytokine 1.0 (ng/ml), chronic treatment"}, "[5]": {"conditions": "cytokine 5.0 (ng/ml), chronic treatment"}},
  "data": [
    {"molecule": "CCCCCCCCCCCCCC(=O)O[C@@H]1[C@@H](C)[C@@]2(O)[C@@H](C=C(CO)C[C@]3(O)C(=O)C(C)=C[C@@H]23)[C@@H]2C(C)(C)[C@]12OC(C)=O", "note": "[Phorbol ester]", "values": [
      {"measurement": "metalloproteinase synthesis induced", "setting": "[1]", "value": "specifically induced synthesis of gelatinase B"}
    ]},
    {"molecule": "IL-1β: cytokine used to stimulate resorption of neocartilage", "values": [
      {"measurement": "OH-proline content of tissue", "setting": "neocartilage [2]; cytokine 0.1 ng/ml, chronic treatment", "value": "572 ± 105", "unit": "pmol"},
      {"measurement": "OH-proline content of tissue", "setting": "neocartilage [2]; [4]", "value": "541 ± 16", "unit": "pmol"},
      {"measurement": "OH-proline content of tissue", "setting": "neocartilage [2]; [5]", "value": "501 ± 48", "unit": "pmol"},
      {"measurement": "OH-proline content of tissue", "setting": "neocartilage [2]; cytokine + 50 mU plasminogen, cytokine concentration not printed on the line", "value": "460 ± 16", "unit": "pmol"},
      {"measurement": "thickness of the synthesized matrix", "setting": "neocartilage [2]; day 60 neocartilage, 1 ng/ml for 30 days", "value": "significant reduction in the thickness of the synthesized matrix"},
      {"measurement": "safranin-O and pentachrome staining intensity", "setting": "neocartilage [2]; day 60 neocartilage, 1 ng/ml for 30 days, versus untreated controls", "value": "Staining intensity is markedly reduced"},
      {"measurement": "gross appearance of neocartilage on removal from plastic surface", "setting": "neocartilage [3]", "value": "retracted considerably upon removal from the plastic surface"}
    ]},
    {"molecule": "TNF-α", "values": [
      {"measurement": "OH-proline content of tissue", "setting": "neocartilage [2]; [4]", "value": 403, "unit": "pmol"},
      {"measurement": "OH-proline content of tissue", "setting": "neocartilage [2]; [5]", "value": 355, "unit": "pmol"},
      {"measurement": "gross appearance of neocartilage on removal from plastic surface", "setting": "neocartilage [3]", "value": "retracted considerably upon removal from the plastic surface"}
    ]},
    {"molecule": "heparin", "values": [
      {"measurement": "defect in matrix deposition", "setting": "Fetal chondrocytes; 2 μg/ml", "value": "much less severe"},
      {"measurement": "inhibition in OH-proline (matrix deposition)", "setting": "Fetal chondrocytes; highest concentration of heparin (20 μg)", "value": 33, "unit": "%"}
    ]},
    {"molecule": "plasminogen: added to enhance the activation of latent MMPs via the plasminogen activator/plasmin cascade (protein, UniProt P00747 20-810, looked up) Plasminogen: EPLDDYVNTQGASLFSVTKKQLGAGSIEECAAKCEEDEEFTCRAFQYHSKEQQCVIMAENRKSSIIIRMRDVVLFEKKVYLSECKTGNGKNYRGTMSKTKNGITCQKWSSTSPHRPRFSPATHPSEGLEENYCRNPDNDPQGPWCYTTDPEKRYDYCDILECEEECMHCSGENYDGKISKTMSGLECQAWDSQSPHAHGYIPSKFPNKNLKKNYCRNPDRELRPWCFTTDPNKRWELCDIPRCTTPPPSSGPTYQCLKGTGENYRGNVAVTVSGHTCQHWSAQTPHTHNRTPENFPCKNLDENYCRNPDGKRAPWCHTTNSQVRWEYCKIPSCDSSPVSTEQLAPTAPPELTPVVQDCYHGDGQSYRGTSSTTTTGKKCQSWSSMTPHRHQKTPENYPNAGLTMNYCRNPDADKGPWCFTTDPSVRWEYCNLKKCSGTEASVVAPPPVVLLPDVETPSEEDCMFGNGKGYRGKRATTVTGTPCQDWAAQEPHRHSIFTPETNPRAGLEKNYCRNPDGDVGGPWCYTTNPRKLYDYCDVPQCAAPSFDCGKPQVEPKKCPGRVVGGCVAHPHSWPWQVSLRTRFGMHFCGGTLISPEWVLTAAHCLEKSPRPSSYKVILGAHQEVNLEPHVQEIEVSRLFLEPTRKDIALLKLSSPAVITDKVIPACLPSPNYVVADRTECFITGWGETQGTFGAGLLKEAQLPVIENKVCNRYEFLNGRVQSTELCAGHLAGGTDSCQGDSGGPLVCFEKDKYILQGVTSWGLGCARPNKPGVYVRVSRFVTWIEGVMRNN", "values": [
      {"measurement": "OH-proline content of tissue", "setting": "neocartilage [2]; 50 mU plasminogen alone, no cytokine, chronic treatment", "value": "1648 ± 72", "unit": "pmol"}
    ]}
  ]
}
